Assay results from publication PMC4114247 (Cancer research, 2009).

What was measured:
[1] = target: PSMA on human prostate cancer LNCaP cells (Homo sapiens, UniProt Q04609); assay: Saturation binding analysis on LNCaP cells
[2] = target: NAALADase activity of PSMA (Homo sapiens, UniProt Q04609); assay: NAALADase inhibition in LNCaP cell lysates; format: biochemical
Chain of NAALADase activity of PSMA (Q04609 whole entry): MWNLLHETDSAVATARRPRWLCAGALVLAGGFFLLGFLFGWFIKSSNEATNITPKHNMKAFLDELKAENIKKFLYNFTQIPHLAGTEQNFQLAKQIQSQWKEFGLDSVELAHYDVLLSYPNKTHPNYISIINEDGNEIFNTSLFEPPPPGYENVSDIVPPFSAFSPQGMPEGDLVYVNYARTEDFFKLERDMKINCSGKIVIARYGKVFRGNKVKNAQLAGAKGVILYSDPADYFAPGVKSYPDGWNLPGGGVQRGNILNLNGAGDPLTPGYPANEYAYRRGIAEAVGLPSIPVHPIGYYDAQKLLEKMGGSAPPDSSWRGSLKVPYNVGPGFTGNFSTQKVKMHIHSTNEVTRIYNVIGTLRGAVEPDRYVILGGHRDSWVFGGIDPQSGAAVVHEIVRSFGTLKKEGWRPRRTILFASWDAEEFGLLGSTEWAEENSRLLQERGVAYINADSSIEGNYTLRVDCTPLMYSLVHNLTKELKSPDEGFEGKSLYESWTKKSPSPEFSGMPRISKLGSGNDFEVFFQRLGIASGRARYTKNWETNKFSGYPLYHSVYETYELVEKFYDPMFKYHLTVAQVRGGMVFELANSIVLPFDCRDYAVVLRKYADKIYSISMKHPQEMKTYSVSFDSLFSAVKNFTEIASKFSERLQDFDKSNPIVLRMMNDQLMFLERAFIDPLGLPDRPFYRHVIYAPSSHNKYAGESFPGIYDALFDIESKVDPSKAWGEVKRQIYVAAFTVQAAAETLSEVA

Chain of PSMA on human prostate cancer LNCaP cells (Q04609 whole entry): as above

Compound: O=C(O)CC[C@H](NC(=O)N[C@@H](CCCCNCc1ccc(I)cc1)C(=O)O)C(=O)O [MIP-1072, (S)-2-(3-((S)-1-carboxy-5-(4–iodobenzylamino)pentyl)ureido)pentanedioic acid]
- Kd [1]: 3.8 ± 1.3 nM
- Ki [2]: 4.6 ± 1.6 nM
